Measurements taken from patent publication US8802597B2, “Herbicidal pyrimidines” (E I du Pont de Nemours and Company, priority 2003, dated 2014).

What was measured:
Assay type in all cases: in vivo
[1] = test system: pigweed (Amaranthus retroflexus); assay: Test B pre/postemergence
Outline: (§1)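 Following sowing, compounds in a surfactant-bearing non-phytotoxic solvent were applied preemergence; emerged plants 2 to 18 cm high got postemergence treatment concurrently. Evaluation: 13 to 15 days later, greenhouse, 0–100 visual scale.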

[2] = test system: velvetleaf (Abutilon theophrasti); assay: Test B pre/postemergence
Outline: as §1

[3] = test system: crabgrass (Digitaria sanguinalis); assay: Test B pre/postemergence
Outline: as §1

[4] = test system: Surinam grass (Brachiaria decumbens); assay: Test B pre/postemergence
Outline: as §1

corn (Zea mays) = assay: Test B pre/postemergence
Outline: as §1

[5] = test system: barnyardgrass (Echinochloa crus-galli); assay: Test B pre/postemergence
Outline: as §1

[6] = test system: giant foxtail (Setaria faberii); assay: Test B pre/postemergence
Outline: as §1

[7] = test system: wheat (Triticum aestivum); assay: Test B pre/postemergence
Outline: as §1

[8] = test system: morningglory (Ipomoea coccinea); assay: Test B pre/postemergence
Outline: as §1

[9] = test system: lambsquarters (Chenopodium album); assay: Test B pre/postemergence
Outline: as §1

[10] = test system: cocklebur (Xanthium strumarium); assay: Test B pre/postemergence
Outline: as §1

rice (Oryza sativa) = assay: Test B flooded paddy test; settings: Flood, 1000 g ai/ha; scale 0 to 100
Outline: (§2)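 Plants were grown to the 2-leaf stage before treatment, then kept in a greenhouse for 13 to 15 days. Injury was rated visually against untreated controls on a 0 to 100 scale, where 0 is no effect and 100 is complete control.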

[11] = test system: umbrella sedge (Cyperus difformis); assay: Test B flooded paddy test; settings: Flood, 1000 g ai/ha; scale 0 to 100
Outline: as §2

[12] = test system: barnyardgrass (Echinochloa crus-galli); assay: Test B flooded paddy test; settings: Flood, 1000 g ai/ha; scale 0 (no effect) to 100 (complete control)
Outline: as §2

[13] = test system: duck salad (Heteranthera limosa); assay: Test B flooded paddy test; settings: Flood, 1000 g ai/ha; scale 0 to 100
Outline: as §2

wild oat (Avena fatua) = assay: Test B postemergence
Outline: as §1

[14] = test system: blackgrass (Alopecurus myosuroides); assay: Test B postemergence
Outline: as §1

[15] = Postemergence, 125 g ai/ha, scale 0 to 100 (0 no effect, 100 complete control)
[16] = Postemergence, 500 g ai/ha, scale 0 to 100
[17] = Preemergence, 125 g ai/ha, scale 0 to 100 (0 no effect, 100 complete control)
[18] = Preemergence, 500 g ai/ha, scale 0 to 100 (0 no effect, 100 complete control)
[19] = 125 g ai/ha, scale 0 to 100 (0 no effect, 100 complete control)

## CCOC(=O)C(Cl)(Cl)c1nc(C2CC2)nc(N)c1Br [Compound 34]
[1]; [15]
  Pigweed plant response rating: 50
[1]; [16]
  Plant response rating, Pigweed: 80
[1]; [17]
  Plant response rating, Pigweed: 40
[1]; [18]
  Pigweed plant response rating: 80
[2]; [15]
  Velvetleaf plant response rating: 30
[2]; [16]
  Plant response rating, Velvetleaf: 60
[2]; [17]
  Plant response rating, Velvetleaf: 30
[2]; [18]
  Velvetleaf plant response rating: 60
[3]; [15]
  Crabgrass plant response rating: 0
[3]; [16]
  Plant response rating, Crabgrass: 30
[3]; [17]
  Plant response rating, Crabgrass: 0
[3]; [18]
  Crabgrass plant response rating: 70
[4]; [15]
  Surinam Grass plant response rating: 10
[4]; [16]
  Plant response rating, Surinam Grass: 50
[4]; [17]
  Plant response rating, Surinam Grass: 10
[4]; [18]
  Surinam Grass plant response rating: 50
Corn (Zea mays); [15]
  Corn plant response rating: 0
Corn (Zea mays); [16]
  Plant response rating, Corn: 0
Corn (Zea mays); [17]
  Plant response rating, Corn: 0
Corn (Zea mays); [18]
  Corn plant response rating: 0
[5]; [15]
  Barnyardgrass plant response rating: 0
[5]; [16]
  Plant response rating, Barnyardgrass: 60
[5]; [17]
  Plant response rating, Barnyardgrass: 0
[5]; [18]
  Barnyardgrass plant response rating: 0
[6]; [15]
  Foxtail, Giant plant response rating: 20
[6]; [16]
  Plant response rating, Foxtail, Giant: 50
[6]; [17]
  Plant response rating, Foxtail, Giant: 0
[6]; [18]
  Foxtail, Giant plant response rating: 20
[7]; [15]
  Wheat plant response rating: 30
[7]; [16]
  Plant response rating, Wheat: 40
[7]; [17]
  Plant response rating, Wheat: 0
[7]; [18]
  Plant response rating, Wheat: 10
[8]; [15]
  Morningglory plant response rating: 60
[8]; [16]
  Plant response rating, Morningglory: 70
[8]; [17]
  Plant response rating, Morningglory: 20
[8]; [18]
  Morningglory plant response rating: 70
[9]; [15]
  Lambsquarters plant response rating: 70
[9]; [16]
  Plant response rating, Lambsquarters: 90
[9]; [17]
  Plant response rating, Lambsquarters: 50
[9]; [18]
  Lambsquarters plant response rating: 80
[10]; [15]
  Cocklebur plant response rating: 80
[10]; [16]
  Plant response rating, Cocklebur: 80
[10]; [17]
  Plant response rating, Cocklebur: 30
[10]; [18]
  Cocklebur plant response rating: 60
Rice (Oryza sativa)
  Plant response rating, Rice: 0
[11]
  Plant response rating, Sedge, Umbrella: 0
[12]
  Plant response rating, Barnyardgrass: 0
[13]
  Plant response rating, Ducksalad: 0
Wild oat (Avena fatua); [19]
  Oat, Wild plant response rating: 30
Wild oat (Avena fatua); 500 g ai/ha, scale 0 to 100
  Plant response rating, Oat, Wild: 40
[14]; [19]
  Blackgrass plant response rating: 60
[14]; 500 g ai/ha, scale 0 to 100
  Plant response rating, Blackgrass: 70
